From patent publication US20130252944A1, “NOVEL FUSED PYRAZOLE DERIVATIVES AND THEIR USE AS ALLOSTERIC MODULATORS OF METABOTROPIC GLUTAMATE RECEPTORS” (priority 2010, published 2013)

Molecular target: T1, recombinant human mGluR4a receptors (Homo sapiens, UniProt Q14833)
T1 construct: expressed in transfected cells
Assay: Fluorescent cell based Ca2+ mobilization assay (FLIPR) on HEK-293 cells expressing human mGluR4
Details: positive allosteric modulation in presence of EC25 glutamate; HEK-293 hmGluR4; mean of at least three independent experiments in duplicate; read-out: Ca^2+ Flux (mean EC50)
Text: mGluR4 Assay on HEK-Expressing Human mGluR4
The compounds of the present invention are positive allosteric modulators of mGluR4 receptor. Their activity was examined on recombinant human mGluR4a receptors by detecting changes in intracellular Ca^2+concentration, using the fluorescent Ca^2+-sensitive dye Fluo4-(AM) and a Fluorometric Imaging Plate Reader (FLIPR, Molecular Devices, Sunnyvale, Calif.).
The cDNA encoding the human metabotropic glutamate receptor (hmGluR4), (accession number NM_000841.1, NCBI Nucleotide database browser), was subcloned into an expression vector containing also the hygromycin resistance gene. In parallel, the cDNA encoding a G protein allowing redirection of the activation signal to intracellular calcium flux was subcloned into a different expression vector containing also the puromycin resistance gene. Transfection of both these vectors into HEK293 cells with PolyFect reagent (Qiagen) according to supplier's protocol, and hygromycin and puromycin treatment allowed selection of antibiotic resistant cells which had integrated stably one or more copies of the plasmids. Positive cellular clones expressing hmGluR4 were identified in a functional assay measuring changes in calcium fluxes in response to glutamate or selective known mGluR4 orthosteric agonists and antagonists.
HEK-293 cells expressing hmGluR4 were maintained in media containing DMEM, dialyzed Fetal Calf Serum (10%), Glutamax™ (2 mM), Penicillin (100 units/mL), Streptomycin (100 μg/mL), Geneticin (100 μg/mL) and Hygromycin-B (40 μg/mL) and puromycin (1 μg/mL) at 37° C./5% CO2.
Human mGluR4 HEK-293 cells were plated out 24 hours prior to FLIPR^384 assay in black-walled, clear-bottomed, poly-L-ornithine-coated 384-well plates at a density of 25,000 cells/well in a glutamine/glutamate free DMEM medium containing foetal bovine serum (10%), penicillin (100 units/mL) and streptomycin (100 μg/mL) at 37° C./5% CO2.
On the day of the assay, the medium was aspirated and the cells were loaded with a 3 μM solution of Fluo4-AM (LuBioScience, Lucerne, Switzerland) in 0.03% pluronic acid. After 1 hour at 37° C./5% CO2, the non incorporated dye was removed by washing cell plate with the assay buffer and the cells were left in the dark at room temperature for […] before testing. All assays were performed in a pH=7.4 buffered-solution containing 20 mM HEPES, 143 mM NaCl, 6 mM KCl, 1 mM MgSO4, 1 mM CaCl2, 0.125 mM sulfapyrazone and 0.1% glucose.
After 10 s of basal fluorescence recording, various concentrations of the compounds of the invention were added to the cells. Changes in fluorescence levels were first monitored for 180 s in order to detect any agonist activity of the compounds. Then the cells were stimulated by an EC25 glutamate concentration for an additional 110 s in order to measure enhancing activities of the compounds of the invention. EC25 glutamate concentration is the concentration giving 25% of the maximal glutamate response.
The concentration-response curves of representative compounds of the present invention were generated using the Prism GraphPad software (Graph Pad Inc, San Diego, USA). The curves were fitted to a four-parameter logistic equation:
(Y=Bottom+(Top−Bottom)/(1+10̂((LogEC50−X)*Hill Slope)
allowing the determination of EC50 values.
The Table 3 below represents the mean EC50 obtained from at least three independent experiments of selected molecules performed in duplicate.

T1 sequence (Q14833 33-912): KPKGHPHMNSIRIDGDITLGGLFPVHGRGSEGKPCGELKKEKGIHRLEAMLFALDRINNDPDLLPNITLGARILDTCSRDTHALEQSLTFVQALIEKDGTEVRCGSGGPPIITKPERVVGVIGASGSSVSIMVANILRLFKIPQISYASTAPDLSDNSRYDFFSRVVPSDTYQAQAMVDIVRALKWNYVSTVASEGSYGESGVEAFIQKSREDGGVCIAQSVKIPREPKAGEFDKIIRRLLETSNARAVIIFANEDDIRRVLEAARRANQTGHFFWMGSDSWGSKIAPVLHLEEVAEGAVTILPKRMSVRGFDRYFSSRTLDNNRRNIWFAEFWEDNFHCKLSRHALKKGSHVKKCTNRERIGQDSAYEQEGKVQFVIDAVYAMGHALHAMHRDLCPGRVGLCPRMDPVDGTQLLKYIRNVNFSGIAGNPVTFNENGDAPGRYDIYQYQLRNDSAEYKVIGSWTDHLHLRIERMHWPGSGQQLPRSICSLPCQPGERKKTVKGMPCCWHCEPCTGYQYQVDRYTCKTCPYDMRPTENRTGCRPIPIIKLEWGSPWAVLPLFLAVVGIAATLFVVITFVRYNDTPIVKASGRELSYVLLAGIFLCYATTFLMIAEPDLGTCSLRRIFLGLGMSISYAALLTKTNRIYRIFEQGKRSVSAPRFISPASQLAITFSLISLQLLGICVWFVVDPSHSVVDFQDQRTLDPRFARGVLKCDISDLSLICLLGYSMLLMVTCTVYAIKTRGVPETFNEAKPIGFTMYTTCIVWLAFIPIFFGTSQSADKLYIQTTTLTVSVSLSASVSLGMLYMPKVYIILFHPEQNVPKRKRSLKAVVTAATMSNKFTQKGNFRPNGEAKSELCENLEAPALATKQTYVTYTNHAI

| Compound | EC50 |
| --- | --- |
| CCC1OCc2sc(Nc3nccc(C)n3)nc2-c2c[nH]nc21 (centres unmarked) [Compound 1-8, (6-Ethyl-6,8-dihydro-4H-5-oxa-3-thia-1,7,8-triaza-cyclopenta[e]azulen-2-yl)-(4-methyl-pyrimidin-2-yl)-amine] | < 100 nM |
| Cc1ccnc(Nc2nc3c(s2)COC(C(F)(F)F)c2n[nH]cc2-3)n1 (centres unmarked) [Compound 1-13, (4-Methyl-pyrimidin-2-yl)-(6-trifluoromethyl-6,8-dihydro-4H-5-oxa-3-thia-1,7,8-triaza-cyclopenta[e]azulen-2-yl)-amine] | < 100 nM |
| Cc1ccnc(Nc2nc3c(s2)CCC(O)c2[nH]ncc2-3)n1 (centres unmarked) [Compound 1-3, 2-(4-Methyl-pyrimidin-2-ylamino)-4,5,6,7-tetrahydro-3-thia-1,7,8-triaza-cyclopenta[e]azulen-6-ol] | 100 to 1000 nM |
| Cc1ccnc(Nc2nc3c(s2)CCC(C)c2n[nH]cc2-3)n1 (centres unmarked) [Compound 1-12, (4-Methyl-pyrimidin-2-yl)-(6-methyl-4,5,6,8-tetrahydro-3-thia-1,7,8-triaza-cyclopenta[e]azulen-2-yl)-amine] | < 100 nM |
| Cc1cc2[nH]ncc2c2nc(Nc3ccccn3)sc12 [Compound 1-1, (4-Methyl-6H-3-thia-1,6,7-triaza-as-indacen-2-yl)-pyridin-2-yl-amine] | 1000 to 10000 nM |
| Cc1ccnc(Nc2nc3c(s2)COC(C)(C)c2n[nH]cc2-3)n1 [Compound 1-10, (6,6-Dimethyl-6,8-dihydro-4H-5-oxa-3-thia-1,7,8-triaza-cyclopenta[e]azulen-2-yl)-(4-methylpyrimidin-2-yl)-amine] | < 100 nM |
| Cc1ccnc(Nc2nc3c(s2)CC(C)(C)C(F)(F)c2[nH]ncc2-3)n1 [Compound 1-9, (6,6-Difluoro-5,5-dimethyl-4,5,6,7-tetrahydro-3-thia-1,7,8-triaza-cyclopenta[e]azulen-2-yl)-(4-methyl-pyrimidin-2-yl)-amine] | 100 to 1000 nM |
| Cc1ccnc(Nc2nc3c(s2)CCCCc2[nH]ncc2-3)n1 [Compound 1-7, (4-Methyl-pyrimidin-2-yl)-(5,6,7,8-tetrahydro-4H-3-thia-1,8,9-triaza-dicyclopenta[a,c]cycloocten-2-yl)-amine] | 100 to 1000 nM |
| CCCC1Cc2sc(Nc3nccc(C)n3)nc2-c2cn[nH]c21 (centres unmarked) [Compound 1-5, (4-Methyl-pyrimidin-2-yl)-(5-propyl-5,6-dihydro-4H-3-thia-1,6,7-triaza-as-indacen-2-yl)-amine] | 100 to 1000 nM |
| Cc1ccnc(Nc2nc3c(s2)CC(C)Cc2n[nH]cc2-3)n1 (centres unmarked) [Compound 1-11, (4-Methyl-pyrimidin-2-yl)-(5-methyl-4,5,6,8-tetrahydro-3-thia-1,7,8-triaza-cyclopenta[e]azulen-2-yl)-amine] | 100 to 1000 nM |
| Cc1ccnc(Nc2nc3c(s2)C(C)(C)OCc2n[nH]cc2-3)n1 [Compound 1-4, (4,4-Dimethyl-6,8-dihydro-4H-5-oxa-3-thia-1,7,8-triaza-cyclopenta[e]azulen-2-yl)-(4-methyl-pyrimidin-2-yl)-amine] | 100 to 1000 nM |
| Dimethyl-carbamic acid 2-(4-methyl-pyrimidin-2-ylamino)-4,5,6,6a,7,8-hexahydro-3-thia-1,7,8-triaza-cyclopenta[e]azulen-5-yl ester [Compound 1-6] | 100 to 1000 nM |
| Cc1ccnc(Nc2nc3c(s2)C(C)(C)OC(C)c2n[nH]cc2-3)n1 (centres unmarked) [Compound 1-2, (4-Methyl-pyrimidin-2-yl)-(4,4,6-trimethyl-6,8-dihydro-4H-5-oxa-3-thia-1,7,8-triaza-cyclopenta[e]azulen-2-yl)-amine] | 1000 to 10000 nM |

Next, values leading:

| EC50 | Compound |
| --- | --- |
| < 100 nM | Cc1ccnc(Nc2nc3c(s2)CCOc2n[nH]cc2-3)n1 [Compound 1-17, (4,8-Dihydro-5H-6-oxa-3-thia-1,7,8-triaza-cyclopenta[e]azulen-2-yl)-(4-methyl-pyrimidin-2-yl)-amine] |
| 100 to 1000 nM | Cc1nc(Nc2nc3c(s2)COC(C(C)C)c2[nH]ncc2-3)ncc1F (centres unmarked) [Compound 1-29, (5-Fluoro-4-methyl-pyrimidin-2-yl)-(6-isopropyl-6,7-dihydro-4H-5-oxa-3-thia-1,7,8-triaza-cyclopenta[e]azulen-2-yl)-amine] |
| < 100 nM | CCC1OCc2sc(Nc3nccc(OC)n3)nc2-c2cn[nH]c21 (centres unmarked) [Compound 1-22, (6-Ethyl-6,7-dihydro-4H-5-oxa-3-thia-1,7,8-triaza-cyclopenta[e]azulen-2-yl)-(4-methoxy-pyrimidin-2-yl)-amine] |
| < 100 nM | COc1ccnc(Nc2nc3c(s2)COC(C)c2[nH]ncc2-3)n1 (centres unmarked) [Compound 1-14, (4-Methoxy-pyrimidin-2-yl)-(6-methyl-6,7-dihydro-4H-5-oxa-3-thia-1,7,8-triaza-cyclopenta[e]azulen-2-yl)-amine] |
| 100 to 1000 nM | Cc1ccnc(Nc2nc3c(s2)CCC(C(F)(F)F)c2[nH]ncc2-3)n1 (centres unmarked) [Compound 1-27, (4-Methyl-pyrimidin-2-yl)-(6-trifluoromethyl-4,5,6,7-tetrahydro-3-thia-1,7,8-triaza-cyclopenta[e]azulen-2-yl)-amine] |
| < 100 nM | CCC1OCc2sc(Nc3ncc(F)cn3)nc2-c2c[nH]nc21 (centres unmarked) [Compound 1-19, (6-Ethyl-6,8-dihydro-4H-5-oxa-3-thia-1,7,8-triaza-cyclopenta[e]azulen-2-yl)-(5-fluoro-pyrimidin-2-yl)-amine] |
| 100 to 1000 nM | COC1Cc2n[nH]cc2-c2nc(Nc3nccc(C)n3)sc2C1 (centres unmarked) [Compound 1-15, (5-Methoxy-4,5,6,8-tetrahydro-3-thia-1,7,8-triaza-cyclopenta[e]azulen-2-yl)-(4-methyl-pyrimidin-2-yl)-amine] |
| < 100 nM | CCC1OCc2sc(Nc3nsc(C)n3)nc2-c2c[nH]nc21 (centres unmarked) [Compound 1-20, (6-Ethyl-6,8-dihydro-4H-5-oxa-3-thia-1,7,8-triaza-cyclopenta[e]azulen-2-yl)-(5-methyl-[1,2,4]thiadiazol-3-yl)-amine] |
| < 100 nM | COC1CCc2sc(Nc3nccc(C)n3)nc2-c2cn[nH]c21 (centres unmarked) [Compound 1-24, (6-Methoxy-4,5,6,7-tetrahydro-3-thia-1,7,8-triaza-cyclopenta[e]azulen-2-yl)-(4-methyl-pyrimidin-2-yl)-amine] |
| < 100 nM | Cc1ccnc(Nc2nc3c(s2)CC(F)(F)Cc2n[nH]cc2-3)n1 [Compound 1-18, (5,5-Difluoro-4,5,6,8-tetrahydro-3-thia-1,7,8-triaza-cyclopenta[e]azulen-2-yl)-(4-methyl-pyrimidin-2-yl)-amine] |
| < 100 nM | CC1OCc2sc(Nc3cccc(F)n3)nc2-c2c[nH]nc21 (centres unmarked) [Compound 1-23, (6-Fluoro-pyridin-2-yl)-(6-methyl-6,8-dihydro-4H-5-oxa-3-thia-1,7,8-triaza-cyclopenta[e]azulen-2-yl)-amine] |
| < 100 nM | CC(C)C1OCc2sc(Nc3ncc(F)cn3)nc2-c2cn[nH]c21 (centres unmarked) [Compound 1-28, (5-Fluoro-pyrimidin-2-yl)-(6-isopropyl-6,7-dihydro-4H-5-oxa-3-thia-1,7,8-triaza-cyclopenta[e]azulen-2-yl)-amine] |
| < 100 nM | Cc1ccnc(Nc2nc3c(s2)COC(C(C)C)c2n[nH]cc2-3)n1 (centres unmarked) [Compound 1-16, (6-Isopropyl-6,8-dihydro-4H-5-oxa-3-thia-1,7,8-triaza-cyclopenta[e]azulen-2-yl)-(4-methyl-pyrimidin-2-yl)-amine] |
| 100 to 1000 nM | CC(C)C1OCc2sc(Nc3cccc(F)n3)nc2-c2cn[nH]c21 (centres unmarked) [Compound 1-26, (6-Fluoro-pyridin-2-yl)-(6-isopropyl-6,7-dihydro-4H-5-oxa-3-thia-1,7,8-triaza-cyclopenta[e]azulen-2-yl)-amine] |
| 100 to 1000 nM | (6-Isopropyl-6,7-dihydro-4H-5-oxa-3-thia-1,7,8-triaza-cyclopenta[e]azulen-2-yl)-(5-methyl-[1,2,4]thiadiazol-3-yl)-amine [Compound 1-25] |
| < 100 nM | Cc1ccnc(Nc2nc3c(s2)COC(c2ccccn2)c2[nH]ncc2-3)n1 (centres unmarked) [Compound 1-31, (4-Methyl-pyrimidin-2-yl)-(6-pyridin-2-yl-6,7-dihydro-4H-5-oxa-3-thia-1,7,8-triaza-cyclopenta[e]azulen-2-yl)-amine] |
